Data taken from EP2405274A1, “Monitoring anticoagulant therapy and identifying reversible direct factor Xa inhibitors” (Good biomarker Sciences B.V., priority 2010, dated 2012).

Key:
Type in all cases: biochemical
[1] = test system: pooled human citrated plasma; experiment: Prothrombin time (PT) clotting assay with Thromborel S
Method: (§1) The experiments here below were performed with pooled human citrated plasma which was made from a minimum of individual contributions of 6 apparently healthy volunteers. Blood was collected ( 9 vol blood/ 1 volume 0.11 M citrate) in tubes and mixed directly after withdrawal. The Blood was cooled by submersion in ice water and centrifuged in a cooled, swing-out centrifuge for at least 20 minutes at 2000 x g. Subsequently, plasma was carefully separated from the cells and collected in an intermediate , cooled plastic tube. The collected plasma was mixed and centrifuged similarly after which platelet-poor-plasma was collected, aliquoted and after snap-freezing stored at -60 °C or below.
(§2) Different PT assays were used using PT assays commercially available as Simplastin excel S (BioMerieux), Innovin (Dade Behring), Neoplastin CI plus (Stago), Recombiplastin (Instrumentation Laboratories) and Thromborel S (Dade Behring). In each case The reagent consisted of Tissue factor, lipid and CaCl2. Tests were performed in a clotting analyser (AMAX Destiny, Kordia Lifesciences, Leiden, NL). In each case a cuvette was filled with 100 µl plasma and incubated for 1 minute at 37 °C. Pre-warmed PT reagent was added (200 µl) and recording of clotting was started. The AMAX recorded blood clotting by reduction in speed of a turning rod (mechanical detection).
(§3) For spiking experiments with rivaroxaban (Xarelto, from Bayer), the plasma sample was spiked with rivaroxaban at different concentrations between […], and the clotting times were again recorded using the different PT reagents. The results are plotted in Figure 1.

[2] = test system: pooled human citrated plasma; experiment: Prothrombin time (PT) clotting assay with Simplastin Excel
Method: as §1, §2, §3
(§4) Example 1a was repeated with PT clotting assays Thromboplastin S (Biopool, through Trinity),PT fibrinogen (Instrumentation Laboratories), PT fibrinogen recombinant (Instrumentation Laboratories), Thromboplastin C plus ( Siemens) and Simplastin Excel (Biomerieux).

[3] = test system: pooled human citrated plasma; experiment: PT clotting assay with Simplastin Excel S in presence of RVV-V; details: RVV-V added prior to the clotting experiment, Figure 2
Method: as §1
(§5) Different PT assays were used using PT assays commercially available as Simplastin excel S (BioMerieux), Innovin (Dade Behring), Neoplastin CI plus (Stago), Recombiplastin (Instrumentation Laboratories) and Thromborel S (Dade Behring). In each case The reagent consisted of Tissue factor, lipid and CaCl2. […] The AMAX recorded blood clotting by reduction in speed of a turning rod (mechanical detection). […]
(§6) For spiking experiments with rivaroxaban (Xarelto, from Bayer), the plasma sample was spiked with rivaroxaban at different concentrations between […], and the clotting times were again recorded using the different PT reagents. […]

[4] = test system: pooled human citrated plasma; experiment: Prothrombin time (PT) clotting assay with Thromboplastin C plus
Method: as §1, §2, §3, §4

[5] = test system: pooled human citrated plasma; experiment: Prothrombin time (PT) clotting assay with Recombiplastin
Method: as §1, §2, §3

[6] = test system: pooled human citrated plasma; experiment: Prothrombin time (PT) clotting assay with PT fibrinogen
Method: as §1, §2, §3, §4

[7] = test system: pooled human citrated plasma; experiment: Prothrombin time (PT) clotting assay with PT fibrinogen recombinant
Method: as §1, §2, §3, §4

[8] = test system: pooled human citrated plasma; experiment: PT clotting assay with Innovin in presence of RVV-V; details: Figure 2
Method: as §1, §5, §6

[9] = test system: pooled human citrated plasma; experiment: Prothrombin time (PT) clotting assay with Innovin
Method: as §1, §2, §3

[10] = test system: pooled human citrated plasma; experiment: Prothrombin time (PT) clotting assay with Thromboplastin S
Method: as §1
Different PT assays were used using PT assays commercially available as Simplastin excel S (BioMerieux), Innovin (Dade Behring), Neoplastin CI plus (Stago), Recombiplastin (Instrumentation Laboratories) and Thromborel S (Dade Behring). In each case The reagent consisted of Tissue factor, lipid and CaCl2. […] The AMAX recorded blood clotting by reduction in speed of a turning rod (mechanical detection).
as §6

[11] = test system: pooled human citrated plasma; experiment: Prothrombin time (PT) clotting assay with Neoplastin CI plus
Method: as §1, §2, §3

[12] = test system: pooled human citrated plasma; experiment: Prothrombin time (PT) clotting assay with Simplastin excel S; design: Rivaroxaban-prolonged PT / Ratio range: dose or concentration left out as unconfirmed
Method: as §1, §2, §3

[13] = 200 ng/ml rivaroxaban spiked in plasma
[14] = 600 ng/ml rivaroxaban spiked in plasma
[15] = PT ratio compared to reference value ("0"), up to 600 ng/ml rivaroxaban

O=C(NC[C@H]1CN(c2ccc(N3CCOCC3=O)cc2)C(=O)O1)c1ccc(Cl)s1 [rivaroxaban, Rivaroxaban]
Prothrombin time [1, 13]: 21.1 s | Prothrombin time [1, 14]: 26.7 s | Ratio range [1, 15]: 1.0-1.7 | Prothrombin time [2, 13]: 40.0 s | Prothrombin time [2, 14]: 63.1 s | Ratio range [2, 15]: 1.0-3.1 | Effect of RVV-V on prolonged PT [3]: completely vanished | Prothrombin time [4, 13]: 44.3 s | Prothrombin time [4, 14]: 73.5 s | Ratio range [4, 15]: 1.0-3.1 | Prothrombin time [5, 13]: 16.8 s | Prothrombin time [5, 14]: 26.2 s | Ratio range [5, 15]: 1.0-2.5 | Prothrombin time [6, 13]: 38.5 s | Prothrombin time [6, 14]: 62.7 s | Ratio range [6, 15]: 1.0-2.8 | Prothrombin time [7, 13]: 32.9 s | Prothrombin time [7, 14]: 45.4 s | Ratio range [7, 15]: 1.0-1.9 | Change in PT for rivaroxaban [8]: no significant change in PT | Prothrombin time [9, 13]: 12.0 s | Prothrombin time [9, 14]: 17.1 s | Ratio range [9, 15]: 1.0- 1.8 | Change in PT for rivaroxaban ([9]; without RVV-V, Figure 2): no significant change in PT | Prothrombin time [10, 14]: 51.6 s | Ratio range [10, 15]: 1.0-2.4 | Prothrombin time [11, 13]: 20.0 s | Prothrombin time [11, 14]: 35.0 s | Ratio range [11, 15]: 1.0-2.6 | Sensitivity of PT assay for rivaroxaban ([12]; Simplastin Excel S and/or Triniclot Excel S, within the therapeutic range (ratio window 2 - 5)): high sensitivity | Rivaroxaban-prolonged PT ([12]; Simplastin Excel S, without RVV-V, 200 -): 80 s | Prothrombin time ([12]; Simplastin excel S, 200 µg/ml rivaroxaban spiked in plasma): 41.0 s | Ratio range ([12]; Simplastin excel S, PT ratio compared to reference value ("0"), up): 1.0-5.0 | Prothrombin time ([12]; Simplastin excel S, spiked in plasma): 80.8 s
